{"source": "paper PMC4897788", "about": "“Design, biological evaluation and 3D QSAR studies of novel dioxin-containing pyrazoline derivatives with thiourea skeleton as selective HER-2 inhibitors” (Scientific Reports, 2016)", "key": {"p-HER-2": {"test_system": "p-HER-2", "assay": "Western blot p-HER-2 in MDA-MB-453", "type": "cell-based, human", "settings": "increasing C20 levels", "method": "After incubation with compound, cells were harvested and washed with PBS, then lysed in lysis buffer (30 mm Tris, pH 7.5, 150 mm NaCl, 1 mm phenylmethylsulfonyl fluoride, 1 mm Na3VO4, 1% Nonidet P-40, 10% glycerol, and phosphatase and protease inhibitors). After centrifugation at 12,000 g for 5 min, the supernatant was collected as total protein. The concentration of the protein was determined by a BCATM protein assay kit (Pierce, Rockford, IL, USA). The protein samples were separated by 10% SDS–PAGE and subsequently electrotransferred onto a polyvinylidene difluoride membrane (Millipore, Bedford, MA, USA). The membrane was blocked with 5% non-fat milk for 2 h at room temperature. The blocked membrane was probed with the indicated primary antibodies overnight at 4 °C, and then incubated with a horse radish peroxidase (HRP)-coupled secondary antibody."}, "FAK": {"target": "T1, FAK (Homo sapiens, UniProt Q05397)", "T1 construct": "human-recombinant full-length FAK", "T1 sequence (Q05397 whole entry)": "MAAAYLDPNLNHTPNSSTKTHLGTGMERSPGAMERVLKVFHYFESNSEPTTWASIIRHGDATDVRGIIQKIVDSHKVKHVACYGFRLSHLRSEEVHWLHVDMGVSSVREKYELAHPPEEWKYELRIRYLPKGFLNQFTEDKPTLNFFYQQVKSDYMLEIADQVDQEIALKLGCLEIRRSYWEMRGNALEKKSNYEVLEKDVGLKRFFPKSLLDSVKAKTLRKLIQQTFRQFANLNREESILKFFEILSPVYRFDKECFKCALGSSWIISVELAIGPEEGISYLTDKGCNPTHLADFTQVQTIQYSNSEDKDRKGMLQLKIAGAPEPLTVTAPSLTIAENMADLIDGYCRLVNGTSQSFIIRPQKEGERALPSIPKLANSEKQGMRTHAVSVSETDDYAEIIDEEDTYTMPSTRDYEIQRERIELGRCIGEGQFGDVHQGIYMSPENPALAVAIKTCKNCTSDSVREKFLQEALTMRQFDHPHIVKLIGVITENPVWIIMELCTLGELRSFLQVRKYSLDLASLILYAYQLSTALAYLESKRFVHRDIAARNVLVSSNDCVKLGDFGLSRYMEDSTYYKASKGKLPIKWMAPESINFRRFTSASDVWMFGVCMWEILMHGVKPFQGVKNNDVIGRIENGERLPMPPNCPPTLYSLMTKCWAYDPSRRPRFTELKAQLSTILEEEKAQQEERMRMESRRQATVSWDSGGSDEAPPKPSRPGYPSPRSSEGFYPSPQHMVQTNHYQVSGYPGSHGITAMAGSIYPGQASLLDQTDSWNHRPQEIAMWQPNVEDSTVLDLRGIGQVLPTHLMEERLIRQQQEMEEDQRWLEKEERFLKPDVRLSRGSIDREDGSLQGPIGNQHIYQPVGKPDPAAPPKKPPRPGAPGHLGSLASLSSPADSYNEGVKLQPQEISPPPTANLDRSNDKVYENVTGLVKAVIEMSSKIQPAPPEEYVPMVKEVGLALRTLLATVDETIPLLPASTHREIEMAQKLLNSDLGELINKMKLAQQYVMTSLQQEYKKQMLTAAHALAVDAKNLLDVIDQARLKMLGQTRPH", "assay": "FAK inhibitory assay (Kinase-Glo)", "type": "biochemical", "method": "Selected compounds were tested against FAK. In a typical study, human-recombinant full-length FAK was incubated in kinase buffer containing ATP and the substrate for 4 h at room temperature with or without the presence of the corresponding coumpounds. The final concentration of drug as 100, 30, 10, 3 μg/mL. The remaining ATP in solution was then quantified utilizing the Kinase-Glo-luminescence kit (Promega)."}, "VEGFR-2": {"target": "T2, VEGFR-2 (Homo sapiens, UniProt P35968)", "T2 construct": "either the phosphorylated or nonphosphorylated form of the VEGFR-2 kinase domain", "T2 sequence (P35968 834-1162 limits assumed, species assumed)": "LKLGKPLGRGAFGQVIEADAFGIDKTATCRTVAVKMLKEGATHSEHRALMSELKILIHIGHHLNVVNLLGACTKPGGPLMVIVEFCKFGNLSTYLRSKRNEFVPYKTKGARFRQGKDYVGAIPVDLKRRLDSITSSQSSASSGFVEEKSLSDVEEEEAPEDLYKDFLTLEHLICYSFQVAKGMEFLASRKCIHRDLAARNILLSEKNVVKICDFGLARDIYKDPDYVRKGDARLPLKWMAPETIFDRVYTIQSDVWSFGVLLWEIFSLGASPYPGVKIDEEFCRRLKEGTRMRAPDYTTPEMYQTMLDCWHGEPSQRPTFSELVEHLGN", "assay": "VEGFR-2 inhibitory assay", "type": "biochemical", "method": "In a 96-well plate, 5 nM/L of either the phosphorylated or nonphosphorylated form of the VEGFR-2 kinase domain was incubated with selected compounds (10-point titration ranging from 4 μM to 0.1 μM), 1 μM/L gastrin substrate, 20 mM/L Tris-HCl, pH 7.5, 10 mM/L MgCl2, 100 mM/L NaCl, 1.5 mM/L EGTA, 1 mM/L DTT, 0.2 mM/L sodium orthovanadate, and 20 μg/mL BSA for 30 min at 25 °C. ATP was added at a final concentration of 11.8 μM and incubated for 60 min at room temperature. Eu-labeled antiphosphotyrosine pT66 antibody (Perkin- Elmer) was then used for detection. The fluorescence at 665 nM was measured with a Wallac Victor plate reader using a time delay of 50 μs. The experiment was performed for three independent times and in triplicate each time."}, "[1]": {"test_system": "MDA-MB-453 human breast cancer cell line", "assay": "Anti-proliferation assay (MTT), MDA-MB-453", "type": "cell-based", "settings": "24 h", "method": "MCF-7 human breast cancer cells was cultured in DMEM/10% fetal bovine serum, in 5% CO2 water saturated atmosphere at 37 °C. MDA-MB-453 human breast cancer cells was cultured in L-15 medium in 100% air at 37 °C. Cell suspensions (10000/mL) were prepared and 100 μL/well dispensed into 96-well plates (Costar) giving 1000 cells/well. The plates were returned to the incubator for 24 h to allow the cells to reattach. These compounds were initially prepared at 20 mM in DMSO. Aliquots (200 μL) were diluted into 20 mL culture medium giving 200 μM, and 10 serial dilutions of 3× prepared. Aliquots (100 μL) of each dilution were added to the wells, giving doses ranging from 100 μM to 0.005 μM. After a further incubated at 37 °C for 24 h in a humidified atmosphere with 5% CO2, the cell viability was assessed by the conventional 3-(4,5-dimethylthiazol-2-yl)-2,5-diphenyltetrazolium bromide (MTT) reduction assay and carried out strictly according to the manufacturer instructions (Sigma). The absorbance at 590 nm was recorded using LX300 Epson Diagnostic micro-plate reader. Then GI50 was calculated using SPSS 13.0 software."}, "HER-3": {"target": "T3, HER-3 (Homo sapiens, UniProt P21860)", "T3 construct": "HER-3 cytoplasmic domain (HER-3-CD, amino acids 665–1339); His6 (N); made in house", "T3 sequence (P21860 665-1339)": "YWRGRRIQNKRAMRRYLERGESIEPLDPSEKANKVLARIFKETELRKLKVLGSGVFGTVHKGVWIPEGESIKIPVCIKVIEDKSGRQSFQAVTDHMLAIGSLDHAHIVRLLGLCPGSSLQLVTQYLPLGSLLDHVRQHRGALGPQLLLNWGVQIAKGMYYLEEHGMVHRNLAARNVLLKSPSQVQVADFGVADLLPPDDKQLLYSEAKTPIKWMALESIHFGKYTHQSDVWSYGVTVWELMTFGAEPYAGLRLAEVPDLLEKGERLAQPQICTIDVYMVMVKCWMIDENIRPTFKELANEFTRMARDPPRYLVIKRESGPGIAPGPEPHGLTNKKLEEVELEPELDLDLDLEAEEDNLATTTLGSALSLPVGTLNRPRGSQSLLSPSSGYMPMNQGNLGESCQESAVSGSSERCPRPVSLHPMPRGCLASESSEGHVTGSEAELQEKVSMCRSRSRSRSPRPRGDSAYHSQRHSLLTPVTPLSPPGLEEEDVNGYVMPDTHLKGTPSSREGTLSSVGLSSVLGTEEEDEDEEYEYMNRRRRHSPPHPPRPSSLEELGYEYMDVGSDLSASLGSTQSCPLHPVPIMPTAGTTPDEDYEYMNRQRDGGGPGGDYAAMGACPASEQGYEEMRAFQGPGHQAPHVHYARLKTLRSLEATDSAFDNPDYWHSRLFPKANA", "assay": "HER-3 inhibitory assay", "type": "biochemical", "method": "A sequence that encodes (His)6 was located at the 5′ upstream to the HER-2 and EGFR sequences. Sf-9 cells were infected for 3 days for protein expression. Sf-9 cell pellets were solubilized at 0 °C in a buffer at pH 7.4 containing 50 mM HEPES, 10 mM NaCl, 1% Triton, 10 μM ammonium molybdate, 100 μM sodium vanadate, 10 μg/mL aprotinin, 10 μg/mL leupeptin, 10 μg/mL pepstatin, and 16 μg/mL benzamidine, HCl for 20 min followed by 20 min centrifugation. Crude extract supernatant was passed through an equilibrated Ni–NTA superflow packed column and washed with 10 mM and then 100 mM imidazole to remove nonspecifically bound material. Histidine-tagged proteins were eluted with 250 and 500 mM imidazole and dialyzed against 50 mM NaCl, 20 mM HEPES, 10% glycerol and 1 μg/mL each of aprotinin, leupeptin, and pepstatin for 2 h. The entire purification procedure was performed at 4 °C or on ice.\nA 1.8 Kb cDNA encoded for human HER-3 cytoplasmic domain (HER-3-CD, amino acids 665–1339) was applied to perform the experiment using the same method as EGFR/HER-2."}, "HER-2": {"target": "HER-2 (Homo sapiens, UniProt P04626)", "sequence (P04626 676-1245)": "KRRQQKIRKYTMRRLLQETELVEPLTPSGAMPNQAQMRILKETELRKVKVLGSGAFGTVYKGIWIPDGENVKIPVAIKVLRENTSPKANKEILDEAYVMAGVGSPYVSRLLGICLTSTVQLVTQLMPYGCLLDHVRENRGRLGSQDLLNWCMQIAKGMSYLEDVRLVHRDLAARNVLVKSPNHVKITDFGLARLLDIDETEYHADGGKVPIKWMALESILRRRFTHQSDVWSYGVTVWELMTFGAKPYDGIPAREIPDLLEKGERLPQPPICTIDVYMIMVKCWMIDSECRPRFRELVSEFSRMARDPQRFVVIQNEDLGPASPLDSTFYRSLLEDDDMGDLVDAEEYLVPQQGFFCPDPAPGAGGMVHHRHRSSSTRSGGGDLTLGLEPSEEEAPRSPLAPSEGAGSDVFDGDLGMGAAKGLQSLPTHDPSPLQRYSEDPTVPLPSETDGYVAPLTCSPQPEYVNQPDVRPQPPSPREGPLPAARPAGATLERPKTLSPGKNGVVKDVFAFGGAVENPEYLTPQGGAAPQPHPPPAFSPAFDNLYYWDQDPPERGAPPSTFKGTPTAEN", "assay": "HER-2 autophosphorylation kinase assay (DELFIA/time-resolved fluorometry)", "quoted_text": "Both EGFR and HER-2 kinase assays were set up to assess the level of autophosphorylation based on DELFIA/Time-Resolved Fluorometry. […] Then, 10 μL of 5× buffer (containing 20 mM HEPES, 2 mM MnCl2, 100 μM Na3VO4, and 1 mM DTT) and 20 μL of 0.1 mM ATP-50 mM MgCl2 was added for 1 h. Positive and negative controls were included in each plate by incubation of enzyme with or without ATP-MgCl2. At the end of incubation, liquid was aspirated and plates were washed three times with wash buffer. A 75 μL (400 ng) sample of europium-labeled anti-phosphotyrosine antibody was added to each well for another 1 h of incubation. […] The IC50 was obtained from curves of percentage inhibition with eight concentrations of compound. As the contaminants in the enzyme preparation are fairly low, the majority of the signal detected by the anti-phosphotyrosine antibody is from EGFR or HER-2. The experiment was performed for three independent times and in triplicate each time."}}}
{"smiles": "COc1ccc(C2CC(c3ccc4c(c3)OCCO4)=NN2C(N)=S)cc1OC", "note": "(stereo not drawn) [Compound C20, 3-(2,3-dihydrobenzo[b][1,4]dioxin-6-yl)-5-(3,4-dimethoxyphenyl)-4,5-dihydro-1H-pyrazole-1-carbothioamide]", "values": [{"measurement": "p-HER-2 levels", "setting": "p-HER-2", "result": "gradually trend of decrease"}, {"measurement": "IC50", "setting": "FAK", "result": "56.2 ± 5.48", "unit": "µM"}, {"measurement": "IC50", "setting": "VEGFR-2", "result": "18.4 ± 1.74", "unit": "µM"}, {"measurement": "GI50", "setting": "[1]", "result": "150 ± 10", "unit": "nM"}, {"measurement": "IC50", "setting": "HER-3", "result": "5.2 ± 0.46", "unit": "µM"}, {"measurement": "IC50", "setting": "HER-2", "result": "30 ± 2", "unit": "nM"}]}
